These are literature values, as cited in patent publication US10201584B1, “Compositions and methods for treating HCV” (AbbVie Inc., priority 2011, dated 2019).

This data set concerns HCV. The following applies: hepatitis C patients; background statement.

Consider `NC(=O)c1ncn([C@@H]2O[C@H](CO)[C@@H](O)[C@H]2O)n1` [ribavirin], for which the “suppression of HCV levels / effectiveness of regimen” value was “does not effectively suppress HCV levels”.
